Measured values taken from patent US20220168252A1, “RETINOID DERIVATIVES WITH ANTITUMOR ACTIVITY” (BIOGEM S.C. A R.L., priority 2016, published 2022).

Assays:
Human NCI-H460 NSCLC [1] = assay: Anti-proliferative activity, NCI-H460, 24 h exposure + 48 h recovery, SRB; format: cell-based; settings: 48 h recovery in drug-free medium, SRB (Table 1)
Experimental: Tumor cells were exposed for 24 h to new atypical retinoids (AR) and the anti-proliferative activity assessed upon 48 h recovery in drug-free medium with the SRB assay.

Human NCI-H460 NSCLC [2] = assay: Anti-proliferative activity, NCI-H460, 72 h, SRB; format: cell-based; settings: Homo sapiens, NCI-H460
Experimental: (§1) The anti-proliferative activity of the POLA1/HDAC dual inhibitors MIR002 and GEM144 was assessed on various cell lines from solid and hematological cancers.
(§2) Human tumor cells were treated with POLA1/HDAC dual inhibitors and cell survival assessed upon 72 h with the SRB assay. HDAC=Histone Deacetylase. POLA1=DNA Polymerase Alpha 1. RI=Resistance Index.

[3] = system: Human Adarotene-resistant NCI-H460 (R9A) NSCLC; assay: Anti-proliferative activity, H460-R9A, 24 h + 48 h recovery, SRB; format: cell-based; settings: 24 h exposure, read-out: IC50 ± SD H460-R9A
Experimental: (§3) Tumor cells were exposed for 24 h to new atypical retinoids (AR) and the anti-proliferative activity assessed upon 48 h recovery in drug-free medium with the SRB assay. RI=Resistance Index (ratio between the IC50 values of resistant and sensitive cells).

MM487-Luc mesothelioma [4] = assay: Anti-proliferative activity, MM487-Luc, 24 h + 48 h recovery, SRB; format: cell-based; settings: Homo sapiens, 24 h exposure, read-out: IC50 ± SD MM487-Luc
Experimental: as §3

U87MG glioblastoma cells = assay: Anti-proliferative activity, U87MG, 24 h + 48 h recovery, SRB; format: cell-based; settings: Homo sapiens, U-87 MG, 24 h exposure, read-out: IC50 ± SD U87MG
Experimental: as §3

[5] = system: parent A2780 ovarian cancer cell line; assay: Anti-proliferative activity, A2780, 24 h + 48 h recovery, SRB; format: cell-based; settings: Homo sapiens, 24 h exposure, read-out: IC50 ± SD A2780
Experimental: as §3

[6] = system: A2780-Dx multidrug-resistant ovarian cancer cell line; assay: Anti-proliferative activity, A2780-Dx, 24 h + 48 h recovery, SRB; format: cell-based, Human
Experimental: as §3
As described by Zuco V. et al in Neoplasia, 2005 July; 7(7):667-77, H460-R9A are about 70 fold resistant with respect to parental H460 to Adarotene. […] Ovarian cancer A2780 and its clone derivative A2780DX (Doxorubicin resistant) which overexpress P-glycoprotein (PGP), were used to evaluate the possibility of these new molecules to be absorbed at intestinal level. In fact, the overexpression of PGP, as well known, drastically reduces the possibility, after oral administration, of absorption of several chemotherapeutic agents (i.e. Paclitaxel, doxorubicin etc.). Since the IC50 of the tested compounds in A2780 and A2780DX, have similar values we conclude that they are not PGP substrates and they could be administrated to the patients via oral route.

[7] = system: Z-138 mantle cell lymphoma; assay: Anti-proliferative activity, Z-138, 24 h + 48 h recovery, MTT; format: cell-based; settings: Homo sapiens, 24 h exposure
Experimental: (§4) Tumor cells were exposed for 24 h to new atypical retinoids (AR) and the anti-proliferative activity assessed upon 48 h recovery in drug-free medium with the MTT assay.

[8] = system: NB4 (pro-myelocytic. leukemia); assay: Anti-proliferative activity, NB4, 24 h + 48 h recovery, MTT; format: cell-based; settings: Homo sapiens, 24 h exposure
Experimental: as §4

[9] = system: human Pleural Epithelioid Mesothelioma MM473; assay: Orthotopic mesothelioma model MM473 xenografted on nude mice; format: in vivo; settings: 50 mg/kg OS, bid, qdx5/wx4w
Experimental: (MM473-Luc) were re-suspended at the concentration of 1×10^6 cells/40 μl M199 medium., then orthotopically injected intrapeulically with infusion of […] (with Hamilton syringe).
Tumor growth was followed by biweekly measurements. […] Mice were weighed twice a week. […] Tumor growth was further followed by weekly BLI measurements. TGI was calculated as for the H460 trial.

[10] = system: ST1926-resistant H460 (H460-R9A) NSCLC; assay: Anti-proliferative activity, H460-R9A, 72 h, SRB; format: cell-based, human
Experimental: as §1, §2

[11] = system: parent A2780 ovarian carcinoma; assay: Anti-proliferative activity, A2780, 72 h, SRB; format: cell-based, human; settings: Homo sapiens, A2780, read-out: A2780 IC50 ± SD
Experimental: as §1, §2

[12] = system: multidrug-resistant A2780-Dx ovarian carcinoma; assay: Anti-proliferative activity, A2780-Dx, 72 h, SRB; format: cell-based, human; settings: 72 h
Experimental: as §1, §2

MM432-Luc mesothelioma = assay: Anti-proliferative activity, MM432-Luc, 72 h, SRB; format: cell-based; settings: Homo sapiens, read-out: MM432-Luc IC50 ± SD
Experimental: as §1
(§5) HDAC=Histone Deacetylase. POLA1=DNA Polymerase Alpha 1. N.e.=not evaluated.

MM473-Luc mesothelioma = assay: Anti-proliferative activity, MM473-Luc, 72 h, SRB; format: cell-based, Human; settings: Homo sapiens, read-out: MM473-Luc IC50 ± SD
Experimental: as §1, §5

MM487-Luc mesothelioma [13] = assay: Anti-proliferative activity, MM487-Luc, 72 h, SRB; format: cell-based, Human; settings: Homo sapiens, read-out: MM487-Luc IC50 ± SD
Experimental: as §1, §5

MDA-MB231 (Breast) = assay: Anti-proliferative activity, MDA-MB231, 72 h, SRB; format: cell-based; settings: Homo sapiens, MDA-MB-231, read-out: MDA-MB231 (Breast) IC50 ± SD
Experimental: as §1, §5

[14] = system: MDA-MB436 breast carcinoma; assay: Anti-proliferative activity, MDA-MB436, 72 h, SRB; format: cell-based; settings: Homo sapiens, MDA-MB-436, read-out: DA-MB436 (Breast) IC50 ± SD
Experimental: as §1, §5

U87MG-Luc glioma = assay: Anti-proliferative activity, U87MG-Luc, 72 h, SRB; format: cell-based; settings: Homo sapiens, read-out: 87MG-Luc (Glioma) IC50 ± SD
Experimental: as §1, §5

B16-Luc (Melanoma) = assay: Anti-proliferative activity, B16-Luc, 72 h, SRB; format: cell-based, mouse; settings: Mus musculus, read-out: B16-Luc (Melanoma) IC50 ± SD
Experimental: as §1, §5

NB4 (leukemia) = assay: Cell survival, NB4, 72 h, MTT; format: cell-based, Human; settings: Homo sapiens, read-out: NB4 (leukemia) IC50 ± SD
Experimental: as §1
(§6) Tumor cells were treated with POLA1/HDAC dual inhibitors and cell survival assessed upon 72 h with the MTT assay. HDAC=Histone Deacetylase. POLA1=DNA Polymerase Alpha 1.

THP-1 (leukemia) = assay: Cell survival, THP-1, 72 h, MTT; format: cell-based, Human; settings: Homo sapiens, THP-1, read-out: THP-1 (leukemia) IC50 ± SD
Experimental: as §1, §6

U2932 (lymphoma) = assay: Cell survival, U2932, 72 h, MTT; format: cell-based, Human; settings: Homo sapiens, U2932, read-out: U2932 (lymphoma) IC50 ± SD
Experimental: as §1, §6

Z138 (lymphoma) = assay: Cell survival, Z138, 72 h, MTT; format: cell-based, Human; settings: Homo sapiens, Z-138, read-out: Z138 (lymphoma) IC50 ± SD
Experimental: as §1, §6

[15] = system: H460-R9A retinoid resistant cells; assay: H460-R9A lung cancer subcutaneous xenograft in mice; settings: Cisplatin 4 mg/kg IV q7dx4w, MIR002 50 mg/kg OS bid, qdx5/wx4w
Experimental: CD-1 nude and NOG mice, females, 4-5 weeks-old, were housed under specific-pathogen-free conditions in individually ventilated cages.
Cells were cultured in appropriated media and expanded in a 37° C. incubator with saturated humidity and an atmosphere of 95% air and 5% CO2, and were sub-cultured every 2-3 days. Before the injection in mice, cells were checked with MycoAlert® Mycoplasma Detection Kit (Lonza) to exclude mycoplasma contamination, counted by trypan blue dye exclusion, evaluated for cell viability (>95%).
H-460-R9A lung cancer cells were suspended at a concentration of 25×10^6/ml. 5×10^6 tumor cells were suspended in 0.2 ml of M199, then inoculated subcutaneously on the right flank of each animal.
MIR002 was dissolved to a concentration of 3.3 mg/mL in 10% DMSO, 5% ethanol, 20% Kolliphor® EL and 65% Na2CO3 10 mM pH 11 and administered by gavage; Cisplatin was dissolved to a concentration of 0.8 mg/mL in sterile saline solution and administered intravenously.
Four days after inoculation, tumor masses of H460-R9A were measured in length and width using a Mitutoyo caliper, mice were sorted basing on tumor volume (TV) and treatments were started. Tumor volume was calculated as follows: TV (mm3)=(Length (mm)×Width (mm)2)/2. Tumor growth was followed by biweekly measurements. Tumor Growth Inhibition (TGI) for each group was calculated as follows: TGI (%)=100−(mean TVtreated/mean TVcontrol×100). Mice were weighed twice a week.

- IC50 (Human NCI-H460 NSCLC [1]): ≤ 500 nM
- IC50 (Human NCI-H460 NSCLC [2]; 72 h, SRB (Table 8), read-out: NCI-H460 IC50 ± SD): 250 ± 6 nM
- IC50 (Human NCI-H460 NSCLC [2]; chronically exposed 72 h, SRB (Table 2), read-out: IC50 ± SD): < 500 nM
- IC50 [3]: 2800 ± 300 nM
- IC50 (MM487-Luc mesothelioma [4]): 4500 ± 300 nM
- IC50 (U87MG glioblastoma cells): 1100 ± 300 nM
- IC50 [5]: 600 ± 10 nM
- RI (Resistance Index, ratio between the IC50 values of resistant and sensitive cells) ([6]; A2780-Dx vs A2780, 24 h exposure): 0.7
- IC50 ([6]; Homo sapiens, A2780/DX, 24 h exposure, SRB, read-out: IC50 ± SD A2780-Dx): 410 ± 5 nM
- IC50 [7]: 74 ± 20 nM
- IC50 [8]: 180 ± 40 nM
- BWL Day + 35 [9]: 0%
- IC50 ([10]; Homo sapiens, H460-R9A, SRB, read-out: H460-R9A IC50 ± SD): 2800 ± 50 nM
- IC50 [11]: 600 ± 10 nM
- IC50 ([12]; Homo sapiens, A2780/DX, SRB, read-out: A2780-Dx IC50 ± SD): 410 ± 5 nM
- IC50 (MM432-Luc mesothelioma): 1500 ± 80 nM
- IC50 (MM473-Luc mesothelioma): 1200 ± 60 nM
- IC50 (MM487-Luc mesothelioma [13]): 220 ± 20 nM
- IC50 (MDA-MB231 (Breast)): 1900 ± 200 nM
- IC50 [14]: 640 ± 30 nM
- IC50 (U87MG-Luc glioma): 1100 ± 300 nM
- IC50 (B16-Luc (Melanoma)): 270 ± 20 nM
- BWL Day + 35 ([15]; Adarotene 15 mg/Kg OS q7dx5x4w): 0%
SMILES: O=C(O)/C=C/c1ccc(-c2ccc(OCC(=O)NO)c(C34CC5CC(CC(C5)C3)C4)c2)cc1 [Compound 8, 3-(3′-Adamantan-1-yl-4′-hydroxycarbamoylmethoxybiphenyl-4-yl)-acrylic acid]
- TGI Day + 35 [9]: 77%
- RI (Resistance Index) ([10]; H460-R9A vs NCI-H460): 11.2
- RI (Resistance Index) ([12]; A2780-Dx vs A2780): 0.7
- IC50 (NB4 (leukemia)): 180 ± 40 nM
- IC50 (THP-1 (leukemia)): 420 ± 20 nM
- IC50 (U2932 (lymphoma)): 520 ± 30 nM
- IC50 (Z138 (lymphoma)): 38 ± 3 nM
- TGI Day + 35 ([15]; combination same doses): 38%
